In article PMC10337138 (Acta Neuropathologica Communications, 2023):

What was measured:
BRK/PTK6 = BRK/PTK6 (Homo sapiens, UniProt Q13882); assay: AssayQuant Sox-peptide kinase panel, […] compound, […] ATP; […] inhibition; assay type: biochemical
BLK = BLK (Homo sapiens, UniProt P51451); assay: as above; assay type: biochemical
BLK, sequence (P51451 2-505): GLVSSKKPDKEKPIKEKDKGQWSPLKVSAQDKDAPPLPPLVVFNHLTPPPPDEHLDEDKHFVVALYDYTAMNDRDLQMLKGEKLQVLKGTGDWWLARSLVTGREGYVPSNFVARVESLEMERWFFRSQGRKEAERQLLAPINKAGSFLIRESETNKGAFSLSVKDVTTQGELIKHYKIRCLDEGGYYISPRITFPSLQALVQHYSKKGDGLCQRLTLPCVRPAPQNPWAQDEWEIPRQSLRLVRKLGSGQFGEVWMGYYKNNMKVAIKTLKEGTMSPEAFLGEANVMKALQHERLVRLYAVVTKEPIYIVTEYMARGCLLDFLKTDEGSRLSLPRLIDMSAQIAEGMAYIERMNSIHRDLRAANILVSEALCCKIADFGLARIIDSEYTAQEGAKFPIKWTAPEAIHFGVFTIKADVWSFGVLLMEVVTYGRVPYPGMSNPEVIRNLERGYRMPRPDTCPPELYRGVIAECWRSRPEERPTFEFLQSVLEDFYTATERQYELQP

BRK/PTK6, sequence (Q13882 whole entry): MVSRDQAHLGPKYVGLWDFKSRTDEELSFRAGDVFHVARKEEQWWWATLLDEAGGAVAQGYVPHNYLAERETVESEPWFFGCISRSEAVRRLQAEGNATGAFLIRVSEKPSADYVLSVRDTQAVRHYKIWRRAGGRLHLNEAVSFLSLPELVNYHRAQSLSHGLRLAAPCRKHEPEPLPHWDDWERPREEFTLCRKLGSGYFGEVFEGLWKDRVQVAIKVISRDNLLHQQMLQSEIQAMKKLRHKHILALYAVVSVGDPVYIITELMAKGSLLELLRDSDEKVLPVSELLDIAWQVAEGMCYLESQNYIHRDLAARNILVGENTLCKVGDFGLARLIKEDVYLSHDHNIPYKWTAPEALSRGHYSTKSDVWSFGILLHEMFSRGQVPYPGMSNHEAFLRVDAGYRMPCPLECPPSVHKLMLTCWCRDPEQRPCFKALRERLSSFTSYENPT

- % inhibition at 1 μM (BRK/PTK6): > 50
- % inhibition at 1 μM (BLK): > 50
Substance: GB7208
